Results on one compound are retold here after US11857544B2, “Composition or method including (t)ew-7197 for treating or preventing corneal endothelial diseases” (THE DOSHISHA, priority 2017, dated 2024).

The test system of one experiment is Caspase 3/7. Description: Caspase 3/7 activity (Caspase-Glo 3/7 Assay) in TGF-β-stimulated iFECD. In kind it is cell-based, human. Here is the method:
were seeded on a 96-well plate at a ratio of 3×10^3 cells per well, and cultured until reaching confluence at 37° C. (5% CO2). DMEM+10% FBS+1% P/S was used as the medium. After 24 hours, the medium was removed. SB431542 (WAKO, 192-16541) and EW-7197 (Selleck Chemicals, 57530) were added so that the final concentration would each be 0.01, 0.1, 1, or 10 μM, and the medium was cultured for 24 hours. DMEM+2% FBS+1% P/S was used as the medium. After 24 hours, the medium was removed. 10 ng/ml of Transforming Growth Factor-132 Human recombinant (WAKO, 200-19911) and SB431542 were added so that the final concentration would be 0.01, 0.1, 1, and 10 μM, and the medium was cultured for 24 hours. DMEM+2% FBS+1% P/S was used as the medium. After 24 hours, the cell morphology was observed under a phase contrast microscope. After observation, Caspase 3/7 activity was measured using Caspase-Glo 3/7 Assay by the following procedures. The medium was discarded so that the amount would be 50 μl per well, and a Caspase Glo 3/7 Assay Reagent (mixture of Caspase-Glo 3/7 Assay Buffer and Caspase-Glo 3/7 Assay Substrate) (Promega, G8091) solution was added at 50 μl/well so that the ratio thereof to the medium would be 1:1. The process was hereinafter conducted without exposure to light. The mixture was mixed thoroughly using a shaker for 2 minutes at about 120 min^-1, and incubated for 40 minutes at room temperature. After the incubation, 80 μl was transferred to an Assay plate (Corning, 3912, Assay plate 96 well, white polystyrene), and absorbance was measured using a GloMax-Multi Detection System (Promega, E7051). A caspase inhibitor, i.e., 10μ MZ-VD-FMK (WAKO, 262-02061) was used as a positive control.

In experiment [1] the test system is fibronectin. In words: Area of fibronectin expression by immunostaining, Col8a2 knock-in mice (Example 5). In kind it is in vivo. The note with it: 0.02% eye drop, 8 weeks. Here is the method:
5 μL of 0.02% (about 0.5 mM) EW-7197 eye drop or a base agent (7% DMSO containing PBS) was administered as an eye drop to both eyes of 4-month-old alpha 2 collagen 8 gene (Col8a2) knock-in mice 4 times a day for 8 weeks. The corneal endothelial cell density was measured using a specular microscope KS3M (Konan Medical, Inc.) at before eye drops, and 2, 4, 6, and 8 weeks after eye drops. Mice were euthanized by intraperitoneally administering an excessive amount (200 mg/kg body weight or greater) of anesthetic injection Somnopentyl (Kyoritsu Seiyaku Corporation) 8 weeks after injection. After confirming cardiac arrest, both eye balls were harvested. The harvested eye balls were incised to prepare a corneal fragment. Immunostaining of type I collagen and fibronectin was performed as follows. Image-Pro (Nippon Roper K.K.) was used to analyze the area of type I collagen and fibronectin expression.
After immobilizing a mouse corneal fragment for 10 minutes at room temperature in 4% paraformaldehyde, 0.5% TritonX-100 was added and allowed to permeate for 5 minutes. 1% bovine serum albumin (BSA) was added and the fragment was incubated for 1 hour at room temperature. The corneal fragment was then immersed in a primary antibody solution and reacted overnight at 4° C. […]

Experiment [2] concerns fibronectin. In words: Western blot for fibronectin in TGF-β-stimulated iFECD. The conditions noted are these: any of the concentrations 0.1, 1, 10 μM. In kind it is cell-based, human. Here is the method: […] were seeded on a 12-well plate at a ratio of 8×10^4 cells per well, and cultured at 37° C. (5% CO2) for 24 hours. DMEM+10% FBS+1% P/S was used as the medium. After 24 hours, the medium was removed. EW-7197 (Selleck Chemicals, 57530) was added so that the final concentration would be 0.1, 1, or 10 μM, and SB431542 (WAKO, 192-16541) was added so that the final concentration would be 10 μM, and the medium was cultured for 24 hours. DMEM+2% FBS+1% P/S was used as the medium. After 24 hours, the medium was removed and cultured […] so that the final concentration of 10 ng/ml of Transforming Growth Factor-132 Human recombinant (WAKO, 200-19911) and […] would be 0.1, 1, and 10 μM, and that of SB431542 would be 10 μM. DMEM+2% FBS+1% P/S was used as the medium. After 24 hours, the cell morphology and apoptosis were observed under a phase contrast microscope. To retrieve floating and dead cells, the medium was retrieved on ice, cells were washed twice with 1×PBS(-) and the solution thereof was also retrieved. The solution was centrifuged for 5 min at 4° C. and 800 g and the supernatant was discarded to obtain a precipitate. […] The detected band intensities were analyzed with Lumino Image Analyzer LAS-4000 mini (Fuji Film) and ImageQuantTM software (GE Healthcare).

Turning to `Cc1cccc(-c2[nH]c(CNc3ccccc3F)nc2-c2ccc3ncnn3c2)n1` [EW-7197, N-((4-([1,2,4]triazolo[1,5-a]pyridin-6-yl)-5-(6-methylpyridin-2-yl)-1H-imidazol-2-yl)methyl)-2-fluoroaniline], the “activity of Caspase 3/7” value in the experiment on Caspase 3/7 (at 0.01 μM) is on record as “inhibited significantly”. Further, in the experiment with Caspase 3/7 (at 0.1 μM), the “Caspase 3/7 inhibitory effect compared to SB431542” value is “higher inhibitory effect”. Further, the “area of fibronectin expression compared to the base agent group” value with fibronectin [1] was “decreasing trend”. Also, the “expression of fibronectin (about 240 kDa)” value in the experiment with fibronectin [2] was “suppressed to the same degree as the control group without stimulation with TGF-β or 10 μM of SB431542”.
